Source: US20170191031A1, “SYSTEMS AND METHODS FOR STEM CELL DIFFERENTIATION” (University of Oslo, priority 2014, published 2017)
Non-standard residues stand in square brackets, D forms with d. Residues, ends and D or L forms follow the SMILES beside them. *: point of attachment. Hexanoyl = CCCCCC(=O)*; Ahx = NCCCCCC(=O)O

Tests used:
Type in all cases: cell-based, human
hESC line H1 [1] = experiment: Phase I definitive endoderm differentiation, FOXA2/SOX17 immunofluorescence and cell counting; details: 24 hour treatment, Phase I endpoint 48 hours, CHIR99021 3 μM, BIO 1 μM, Wnt3a 50 ng/ml
Text: (§1) The scale bars represent 100 μm.
as §1

[2] = test system: hESC line H1 and hiPSC line Detroit; experiment: Definitive endoderm differentiation in 3D alginate scaffold, TaqMan; details: cells encapsulated in alginate scaffold; Phase I conditions RPMI-B27+Chir
Method: Differentiation of the hESC line H1 and the hiPSC line Detroit was performed in a 3D environment by encapsulating the cells in an alginate scaffold. The cells were cultured using the same conditions as in 2D with the exception that the spheres were cultured for 6 days in human ES media, then transferred to Phase I conditions (RPMI-B27+Chir). All pluripotency marks were maintained as assessed by TaqMan, to the point prior to transition to Phase I. The ability of hPSCs to be directed to definitive endoderm (DE) in 3D was assessed via the DE marks SOX17 and FOXA2. […] Further differentiation through phases II and III is performed as described above.

[3] = test system: hESC lines 207 and 360, hiPSC lines Detroit; experiment: Phase I definitive endoderm differentiation of other pluripotent lines
Method: Cells were seeded onto Matrigel coated 12 well plates in E8 medium at a 1:3-1:4 split ratio, and allowed to adhere for 24 hours at 37° C./5% CO2. It should be noted the optimal cell density for each line needs to be established. The cells were washed with phosphate buffered saline (PBS) before being treated with differentiation media. The differentiation protocol utilises similar base media to a well-established differentiation protocol (Hay et al., Proc Natl Acad Sci USA 105, 12301-12306 2008), with replacement of all growth factors with small molecules, and minor adjustments in timing. The protocol incorporates several stages (FIG. 1) utilising different small molecules.
(§2) Phase I of differentiation consists of a 24 hour treatment with RPMI-B27±insulin (RPMI 1640 GlutaMAX+B27 supplement, both from Life Technologies) plus 3-4 μM CHIR99021 (Stemgent), followed by a 24 hour treatment with RPMI-B27 alone. Phase II consists of 5 days of treatment with Knockout DMEM containing 20% Knockout Serum Replacement, 2 mM GlutaMAX, 100 μM 2-mercaptoethanol, 1×MEM non-essential amino acids (Life Technologies) and 1% DMSO (Sigma-Aldrich). Phase III consists of 10 days of treatment with Leibovitz L-15 media containing 8.3% tryptose phosphate broth, 10 μM hydrocortisone 21-hemisuccinate, 50 μg/ml sodium-L-ascorbate, 100 nM dexamethasone (all from Sigma-Aldrich), 0.58% insulin-transferrin-selenium (ITS), 2 mM GlutaMAX (all from Life Technologies), 8.3% foetal bovine serum (Lonza), and 100 nM Dihexa (kind gift from Prof. Joseph Harding, Washington State University). During Phases II and III cells are fed every 48 hours. Cells were photographed during differentiation using a Zeiss phase contrast microscope and ZEN software. The scale bars represent 100 μm.
Cells were washed with PBS before being fixed with a 10 minute treatment of ice cold methanol. Fixed cells were washed in 0.1% PBS-T: PBS containing 0.1% Tween 20 (Sigma-Aldrich). […] Cells were imaged using a Zeiss Observer Fluorescence Microscope and Axiovision imaging software. […]
(§3) Immuno-stained cells were quantified for expression of stage specific markers by manual counting. For Phase I, FOXA2 and SOX17 were counted separately. For Phase II, cells were scored positively if the nucleus was stained for HNF4A and the cytoplasm was stained for AFP. For Phase III, cells were scored positively if the nucleus was HNF4A positive and the cytoplasm was ALB positive. Phase III cells were also quantified for AFP and A1AT staining and were counted as positive if the cytoplasm was stained. […] A minimum of 10 fields of view were quantified, with a minimum of 250 cells counted per field of view. Percentages are presented as the average of all field quantifications, plus or minus the standard deviation across all fields.

hESC line H1 [4] = experiment: Phase I gene expression by TaqMan RT-qPCR
Method: as §2, with “Cells were photographed during differentiation using a Zeiss phase contrast microscope and ZEN software. The scale bars represent 100 μm.” left out
RNA was isolated from cells using TRIzol according to manufacturer's instructions and quantified using a spectrophotometer (NanoDrop). cDNA was prepared using the High Capacity Reverse Transcription kit and a thermal cycler (both from Life Technologies). […] Expression levels were quantified relative to ACTB and normalised to undifferentiated pluripotent control samples or definitive endoderm cells as specified. […]

hepatic progenitors = experiment: Phase III hepatocyte maturation, optimisation of concentrations; details: established in HepatoZYME medium; morphology and function
Method: as §2, with “Phase III consists of 10 days of treatment with Leibovitz L-15 media containing 8.3% tryptose” left out

[5] = test system: hESC line 207 and hiPSC Detroit RA, RB, RC derived definitive endoderm; experiment: Phase II hepatic specification of other pluripotent lines; details: all lines tested; Phase II conditions, 5 days
Method: Phase I of differentiation consists of a 24 hour treatment with RPMI-B27±insulin (RPMI 1640 GlutaMAX+B27 supplement, both from Life Technologies) plus 3-4 μM CHIR99021 (Stemgent), followed by a 24 hour treatment with RPMI-B27 alone. Phase II consists of 5 days of treatment with Knockout DMEM containing 20% Knockout Serum Replacement, 2 mM GlutaMAX, 100 μM 2-mercaptoethanol, 1×MEM non-essential amino acids (Life Technologies) and 1% DMSO (Sigma-Aldrich). […]
Cells were washed with PBS before being fixed with a 10 minute treatment of ice cold methanol. […] Cells were imaged using a Zeiss Observer Fluorescence Microscope and Axiovision imaging software. […]
as §3

CYP1A2 = experiment: Cytochrome P450 induction, P450-Glo CYP1A2; details: 100 μM, 72 hours
Method: Induction of cytochrome P450 activity was assessed in both small molecule and growth factor derived HLCs. CYP1A2 activity was detected using the P450-Glo CYP1A2 Induction/Inhibition Assay kit (Promega, Cat. no. V8422). […] Assays were performed according to the manufacturer's instructions for non-lytic P450-Glo assays using cultured cells in monolayers. […] Briefly, cells were cultured to day 20 of the differentiation protocol and Rifampicin or Omeprazole was added to L-15 culture medium, which was formulated as described above, but without dexamethasone or hydrocortisone. […] Briefly, for CYP1 A2 the substrate Luciferin-1A2 was diluted to 6 μM in PBS (calcium/magnesium free) containing 3 mM freshly prepared salicylamide (Sigma). The Luciferin substrate was added to each well (1 ml per well of a 6 well plate), and incubated for 60 minutes followed by detection. […] Basal activity was assessed as above with the omission of inducers. In addition, no cell media controls were included. Finally as a negative control, the pluripotent hESC line H1 was assayed for CYP activity as described above. All data was normalised to total protein content in each well. Data is presented as the mean values of 6 independent experiments; error bars represent standard deviation.

H1 smHLCs = experiment: Uptake of indocyanine green; details: 1 mg/ml, 1 hour; phase microscopy
Method: In order to assess glycogen storage, differentiated cells were fixed and treated with a periodic acid-Schiff staining kit (Sigma-Aldrich) in accordance with manufacturer's instructions and imaged using a Zeiss phase contrast microscope and ZEN software. The scale bars represent 100 μm. The cellular uptake of indocyanine green was assessed. Briefly, ICG (Sigma-Aldrich) was reconstituted in water and used at a final concentration of 1 mg/ml. Cells were incubated in media supplemented with ICG for 1 hour, the cells were then washed with PBS and imaged using a Zeiss phase contrast microscope and ZEN software.

[6] = all lines (207, Detroit RA, RB, RC), 4 μM in RPMI-B27 minus insulin, 48 hours

With `O=C1Nc2cc(Br)ccc2/C1=C1/Nc2ccccc2/C1=N\O` [BIO, (2′Z,3′E)-6-Bromoindirubin-3′-oxime] the “Expression of DE proteins FOXA2 and SOX17 by immunofluorescence” value (“Expression … by immunofluorescence” for short) (hESC line H1 [1]) was “produce FOXA2/SOX17 positive cells”.

In the case of `Cc1c[nH]c(-c2cnc(NCCNc3ccc(C#N)cn3)nc2-c2ccc(Cl)cc2Cl)n1` [CHIR99021], the “Induction of SOX17 and FOXA2 in 3D over 2D differentiation” value [2] is reported as “an order of magnitude induction”, the “Expression … by immunofluorescence” value (hESC line H1 [1]) is reported as “equivalent co-expression” and the “Phase I differentiation under H1 conditions” value ([3]; 3 μM, 24 hour treatment, then 24 hours RPMI-B27) is reported as “very inefficient”. For the same compound, the “FOXA2 positive cells at Phase I endpoint” value [3, 6] was 81%-84%, the “SOX17 positive cells at Phase I endpoint” value [3, 6] was 79%-82% and the “Optimal concentration for Phase I differentiation” value ([3]; titration 1-10 μM in RPMI-B27±insulin, optimum in RPMI-B27 minus insulin) was 4 µM. For the same compound, the “Time to rapid upregulation of NODAL after exposure” value (hESC line H1 [4]; 3 μM) was ≤ 4 h and the “SOX7 levels (primitive endoderm marker) during Phase I” value (hESC line H1 [4]; 3 μM 24 hour, then 24 hours RPMI-B27) was “No upregulation”.

In the case of `C[C@@H]1C[C@H]2[C@@H]3CCC4=CC(=O)C=C[C@]4(C)[C@@]3(F)[C@@H](O)C[C@]2(C)[C@@]1(O)C(=O)CO` [DEX, dexamethasone], the “Optimal concentration for hepatic maturation” value (hepatic progenitors) is reported as 100 nM.

With `C[S+](C)[O-]` [DMSO, Dimethylsulfoxide] the “Efficiency based on AFP/HNF4A co-expression” value [5] was 86%-89%.

For `CCCCCC(=O)N[C@@H](Cc1ccc(O)cc1)C(=O)N[C@H](C(=O)NCCCCCC(N)=O)[C@@H](C)CC` [Dihexa, N-hexanoic-Tyr, Ile-(6) aminohexanoic amide] (Hexanoyl-Tyr-Ile-[Ahx]-NH2), the “Optimal concentration for hepatic maturation” value (hepatic progenitors) was 100 nM.

`COc1ccc2[nH]c([S+]([O-])Cc3ncc(C)c(OC)c3C)nc2c1` (stereo not drawn) [Omeprazole] was tested, and the “Induction of CYP1A2 activity in smHLCs” value (CYP1A2) was “significant induction”.

For `CC1(C)C(/C=C/C=C/C=C/C=C2\N(CCCCS(=O)(=O)O)c3ccc4ccccc4c3C2(C)C)=[N+](CCCCS(=O)(=O)[O-])c2ccc3ccccc3c21` [indocyanine green], the “Cellular uptake in smHLCs” value (H1 smHLCs) was “ICG positive cells were clearly visible”.

For Wnt3a, the “Expression … by immunofluorescence” value (hESC line H1 [1]) was “sufficient to produce populations of cells that expressed the DE markers FOXA2 and SOX17”.
